These results are taken from PMC7851014 (Investigational New Drugs, 2020).

Series [1] deals with ciPTEC. The series is classed as cell-based. To be noted: 2 μM ibrutinib with efflux transporter inhibitors, 48 h. On the procedure: Cytotoxicity was evaluated using a Presto-blue assay as follows: cells were incubated for 1 h with Presto-blue solution (100 μL/well) at 37 °C and […] read using a Jasco FP8300 fluorometer (Tokyo, Japan; excitation wavelength: 560 nm, emission wavelength: 590 nm).

For series [2] the following is noted: human, in vivo.
Protocol: (§1) For analysis, 200 μL acetonitrile containing the internal standards was added to 100 μL sample. After mixing and centrifuging, 200 μL supernatant was transferred, and thereafter the solvent was partially evaporated. Before the samples were analyzed by ultra-high-performance liquid chromatography with mass spectrometer detection [21], 100 μL of mobile phase (water:acetonitrile:formic acid, 90:10:0.1 (v:v:v)) was added.
(§2) When no time was available at all, the sample was omitted. […] Pharmacokinetic (PK) data was analyzed using the PKNCA package (version 0.8.1) [22] for the statistical software R (version 3.4.2) [23] and RStudio (version 1.1.383) [24].
The subject of series [3] is ciPTEC. Conditions: ciPTEC, after 48 h.
Protocol: Medium and cell lysate samples were taken at 1, 2, 3 and 4 h. Each time point was measured in duplicate. Preincubation (t0) analyte concentrations in medium were also analyzed.
A short description of series [4]: clinical. Conditions: human, in vivo.
Protocol: as §1, §2
Series [5] can be described thus: clinical. To be noted: male, human, in vivo, 140 mg.
Protocol: as §1
Time-concentration data of three patients were analyzed. […] When no time was available at all, the sample was omitted. […] Pharmacokinetic (PK) data was analyzed using the PKNCA package (version 0.8.1) [22] for the statistical software R (version 3.4.2) [23] and RStudio (version 1.1.383) [24].
Series [6] in a line: Ibrutinib and SMT-conjugate pharmacokinetics in human subjects (plasma of patients A and B). Conditions: for Concentration: omitted (no group).
Protocol: as §1, §2
The test system of series [7] is BCRP. Also on record: method as in PMID 27001813. Conditions: cited from earlier work.
Series [8] deals with T1, ɣ-GT (Homo sapiens, UniProt P19440).
T1 construct: host or cells: ciPTEC (human conditionally immortalized proximal tubule epithelial cells)
T1 sequence (P19440 whole entry): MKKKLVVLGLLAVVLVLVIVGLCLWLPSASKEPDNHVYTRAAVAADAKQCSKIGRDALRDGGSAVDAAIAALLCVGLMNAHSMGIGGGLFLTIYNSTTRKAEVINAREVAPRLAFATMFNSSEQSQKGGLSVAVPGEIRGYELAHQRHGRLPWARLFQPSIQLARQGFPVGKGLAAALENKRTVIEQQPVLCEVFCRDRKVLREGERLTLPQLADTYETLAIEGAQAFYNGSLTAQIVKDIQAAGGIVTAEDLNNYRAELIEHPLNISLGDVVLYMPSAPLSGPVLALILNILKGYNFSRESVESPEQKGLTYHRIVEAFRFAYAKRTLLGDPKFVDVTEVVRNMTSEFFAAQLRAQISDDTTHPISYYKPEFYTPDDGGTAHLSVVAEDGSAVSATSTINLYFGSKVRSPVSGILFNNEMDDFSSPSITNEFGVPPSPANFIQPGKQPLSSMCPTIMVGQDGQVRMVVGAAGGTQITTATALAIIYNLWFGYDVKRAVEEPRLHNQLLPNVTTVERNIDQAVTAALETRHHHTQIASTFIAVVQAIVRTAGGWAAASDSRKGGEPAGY
Put plainly: ɣ-GT inhibition in ciPTEC. The series is classed as cell-based. Conditions: 100 μM acivicin pre-incubation 2.5 h, 2 μM ibrutinib, 4 h, intra- and extracellularly. How it is done: The formation of metabolites in medium and cells was monitored after 4 h. Ɣ-GT activity in human plasma and calf serum was measured on a Beckmann Coulter AU5800 (Fullerton, CA, USA) clinical chemistry analyzer, with a limit of quantitation of 1 U/L.

Series [9] has as its system ɣ-GT. Also on record: method as in PMID 9178957. Conditions: cited from earlier work.

Usually Tmax stands for the time at which the peak concentration occurs. The AUC(0-t) is exposure summed from dosing to a finite time, without extrapolation to infinity. Higher therefore signals more exposure. For the compound `C=CC(=O)N1CCC[C@@H](n2nc(-c3ccc(Oc4ccccc4)cc3)c3c(N)ncnc32)C1` [Ibrutinib, reference compound], in [1], the cell death result was “up to 50%”. Besides, the Cmax in [2] is on record as 370 ± 180 (151–683) nM. In series [2], the Ctrough is on record as 6.4 ± 2 (4.3–8.9) nM. In series [3], the ibrutinib metabolized entry is “ca. 98%”. Moreover, the Tmax in series [4] was determined as 2.6 h. In series [5], this compound returned an exposure AUC(0-t) of 0.325 µM·h. In addition, the concentration at 1.4 h in series [6] (human, in vivo, 420 mg, Concentration, patient A, sample ID 2, T 1.4 h, 1xdd 420mg, group abs) came to 6.6 nM. The concentration at 0.5 h in [6] (human, in vivo, 420 mg, Concentration, patient A, sample ID 5, T 0.5 h, 1xdd 420mg, group abs) stood at 11.8 nM. Moreover, the concentration at 0.8 h in series [6] (human, in vivo, 420 mg, Concentration, patient A, sample ID 6, T 0.8 h, 1xdd 420mg, group abs) came to 14.6 nM; in series [6] (human, in vivo, 420 mg, Concentration, patient A, sample ID 21, T 0.8 h, 1xdd 420mg, group abs), 143 nM; in series [6] (human, in vivo, 560 mg, Concentration, patient A, sample ID 3, T 0.8 h, 1xdd 560mg, group abs) it was 3.5 nM. In addition, in series [6] (human, in vivo, 420 mg, Concentration, patient A, sample ID 8, T 22.7 h, 1xdd 420mg, group trough), the concentration at 22.7 h is 8.9 nM. In addition, in series [6] (human, in vivo, 420 mg, Concentration, patient A, sample ID 10, T 22.2 h, 1xdd 420mg, group trough), the concentration at 22.2 h stood at 7 nM. In series [6] (human, in vivo, 420 mg, Concentration, patient A, sample ID 11, T 22.6 h, 1xdd 420mg, group trough), this compound returned a concentration at 22.6 h of 4.3 nM. Also, in series [6] (human, in vivo, 420 mg, Concentration, patient A, sample ID 13, T 2.5 h, 1xdd 420mg, group max), the concentration at 2.5 h was 683 nM. Further, the concentration at 3.8 h in series [6] (human, in vivo, 420 mg, Concentration, patient A, sample ID 14, T 3.8 h, 1xdd 420mg, group max) is 151 nM; in [6] (human, in vivo, 560 mg, Concentration, patient B, sample ID 20, T 3.8 h, 1xdd 560mg, group max), 196 nM. In series [6] (human, in vivo, 420 mg, Concentration, patient A, sample ID 19, T 23.3 h, 1xdd 420mg, group trough), this compound came in with a concentration at 23.3 h of 5.5 nM. Also, the concentration at 2.8 h in [6] (human, in vivo, 560 mg, Concentration, patient B, sample ID 4, T 2.8 h, 1xdd 560mg, group max) was 234 nM. The concentration at 4.1 h in series [6] (human, in vivo, 560 mg, Concentration, patient B, sample ID 7, T 4.1 h, 1xdd 560mg, group max) was 360 nM; in series [6] (human, in vivo, 560 mg, Concentration, patient B, sample ID 23, T 4.1 h, 1xdd 560mg, group max) it was 497 nM. Besides, the concentration at 4.4 h turned out to be 192 nM in series [6] (human, in vivo, 560 mg, Concentration, patient B, sample ID 9, T 4.4 h, 1xdd 560mg, group max) and 323 nM in series [6] (human, in vivo, 560 mg, Concentration, patient B, sample ID 24, T 4.4 h, 1xdd 560mg, group max). The concentration at 2.4 h in [6] (human, in vivo, 560 mg, Concentration, patient B, sample ID 12, T 2.4 h, 1xdd 560mg, group max) came out at 551 nM. In series [6] (human, in vivo, 560 mg, Concentration, patient B, sample ID 17, T 3.9 h, 1xdd 560mg, group max), the concentration at 3.9 h stood at 578 nM. The Concentration is listed as 15.8 nM in series [6] (patient A, sample ID 15, T NA, 1xdd 420mg) and 0.9 nM in series [6] (patient A, sample ID 22, T NA, 1xdd 420mg).

Regarding `C[C@@H](c1ncncc1F)[C@](O)(Cn1cncn1)c1ccc(F)cc1F` [Voriconazole], the “inhibition of BCRP” value in [7] is “some inhibition”.

As usually defined, the IC99 is the concentration at which the effect reaches the 99% level. As to `N[C@H](C(=O)O)[C@@H]1CC(Cl)=NO1` [acivicin], the “effect on metabolism of IGSH in ciPTEC” value in [8] is “blocked”. Further, in series [9], the concentration for an effect of 99% (IC99) is 50 µM.
